Data published in patent publication US20060193916A1, “Formulations of peptides for periodontal and dental treatments” (Acologix, Inc., priority 2005, published 2006).

Columns and labels:
[1] = test system: dentin and pulp tissue of teeth with deep class V preparations; experiment: Indirect pulp capping study in dogs (deep class V preparations in maxillary teeth)
Experimental: Deep class V preparations were made without penetrating the pulp cavity on the buccal (labial) side of 8 maxillary teeth (2 premolars and 1 molar on each side of the oral cavity in one canine) in 10-month old Beagle dogs. A radiograph was taken to confirm location of the pulp cavity. The cavities (defects) were drilled perpendicular to the tooth axis (pulp cavity). […] The solution was left in the dry cavity for 2 minutes after which the base of the cavity was covered with Vitrebond and the teeth were sealed with composite.
The solution was left in the dry cavity for 2 minutes after which the cavities were filled with cotton and sealed with Cavit. The dogs in Treatment group 2 were re-treated 3× a week for 1 week (the teeth on the left side) or for 2 weeks (the teeth on the right side). […] The solution was left in the dry cavity for 2 minutes after which the cavities were filled with cotton and sealed with Cavit.
The teeth in treatment group 3 were used as negative (saline) or positive (Dycal) controls. Two of the 4 teeth per animal that were used as negative controls were treated with 2 uL saline. The solution was left in the dry cavity for 2 minutes after which the base of the cavity was covered with Vitrebond and the teeth were sealed with composite. The other 2 teeth used as negative control were treated for 15 sec with Scotchbond Etchant (Single Bond adhesive system), washed with water, air dried and treated with 2 uL saline. The solution was left in the dry cavity for 2 minutes after which the base of the cavity was covered with Single Bond, cured with light and the teeth were sealed with composite. The 2 teeth per animal in treatment group 3 that were used as a positive control were treated with Dycal and sealed with composite using standard operating procedures.
After the specimens were received, the specimens were processed, decalcified and embedded in paraffin. The maxilla specimens were stained with Haematoxylin and eosin (H&E) for new dentin formation evaluation. For immunohistochemistry evaluations, the sections were stained with TUNEL assay for evaluation of apoptosis (score 0-4), and CD45 antibody for inflammation evaluations.
Histopathological assessment of the stained section was done without knowledge of treatment group. Qualitative observations included the analysis of the tooth and underlying bone, including any soft tissue, which may have come into contact with the test material formulation. Cellular infiltrates (score 0-16) and inflammatory responses (score 0-4) at the repair site and the soft tissues were also evaluated.

human dental pulp cells = settings: cited from earlier work
bone formation = settings: mice; cited from earlier work
osteoblastic cells = settings: comparable to growth factors such as BMP and IGF-1; cited from earlier work
bone fracture = settings: rats; local injection near the fracture site; cited from earlier work
[2] = test system: alveolar bone extraction socket
Text: One mandibular premolar per side was extracted. The intra-socket septae in the extraction socket were removed and the wound margins adapted.
Treatment Group I (10 dogs-5 per each time point 3 days and 28 days): • a.
Treatment Group 2 (10 dogs-5 per each time point 3 days and 28 days): • a.
Treatment Group 3 (6 dogs-3 per each time point 3 days and 28 days): • a. Right side: create gingival flap around #407; extract #407 (section with 7011); remove intra-socket septa with 5511; radiograph; measure socket depth; soak a collagen sponge in BMP2; apply collagen sponge to socket; close gingival flap with 4-0 maxon. • b. Left side; create gingival flap around #307; extract #307 (section with 701 l); remove intra-socket septa with 551 l; radiograph; measure socket depth; soak a collagen sponge in 100 μl of saline, apply collagen sponge to socket; close gingival flap with 4-0 maxon.
After the specimens were received, the specimens were processed, decalcified and embedded in paraffin. The mandible specimens were stained with Toluidine blue for osteoblast evaluations.
Histopathological assessment of the stained section was done without knowledge of treatment group. Qualitative observations included the analysis of the underlying bone, including any soft tissue, which may have come into contact with the test material formulation. Fibrous tissue encapsulation, cellular infiltrates and inflammatory responses at the repair site and the soft tissues were also evaluated.
Static histomorphometric analysis was performed on sections stained with toluidine blue stain to determine the percent area of bone in-growth present within the samples using an OsteoMeasure® image analysis system, and associate software (version 4.00c). The amount and quality of the newly formed bone was scored for 0-4, respectively, and evaluated collectively. Tissue reaction such as inflammation and presence of fibrous tissue were also evaluated using the respective scoring system.

[3] = test system: primary mesenchimal stem cell culture; settings: in vitro; cited from earlier work

With TDLQERGDNDISPFSGDGQPFKD [AC-100] the “maximum stimulation of new dentin formation, relative to saline” value ([1]; 200 ug, 3 times per week for one week, day 28) was 8 times, the “new dentin formation compared with Dycal” value ([1]; 28 days post surgery, highest two doses of AC-100 (20 ug and 200 ug), depending on the application schedule) was “comparable to or better than Dycal” and the new dentin formation ([1]; 28 days post surgery, versus saline negative control, single and multiple application schedules) was “dose dependent stimulation of new dentin formation”. The “number of apoptotic cells in the pulp” value ([1]; both 3 and 28 days post surgery, almost all doses applied) was “dose dependently decreased the number of apoptotic cells”, the “new dentin formation, multiple versus single application schedule” value ([1]; day 28) was “worked significantly better than the single application one” and the “new dentin formation, single application” value ([1]; highest dose of AC-100, single application, comparable to Dycal) was “marginal activity”. The “new dentin formation, sealing with Single Bond+composite versus Vitrebond+Composite” value ([1]; single application schedule, almost all doses of AC-100) was “worked markedly better than sealing with Vitrebond+Composite”, the “apoptotic and necrotic cell death in the pulp cavities (study summary)” value ([1]; summary of Example 1) was “almost complete reduction of inflammatory reactions as well as apoptotic or necrotic cell death” and the “inflammatory reactions in the pulp cavities (study summary)” value ([1]; summary of Example 1) was “almost complete reduction of inflammatory reactions”. For the same sequence, the “regeneration of new dentin in the defects (study summary)” value ([1]; summary of Example 1) was “superior regeneration of new dentin tissue”, the “pulp tissue reaction at the highest dose” value ([1]; three days post surgery, 200 ug) was “completely abolishing the pulp reaction” and the pulp inflammation ([1]; three days post surgery, almost all doses applied) was “completely abolishing the pulp inflammation”. The “pulp tissue reaction (inflammatory and fibrosis response)” value ([1]; three days post surgery, sealed with Single Bond or Vitrebond) was “dose dependent inhibition of the tissue reaction”, the “proliferation and differentiation of human dental pulp cells” value (human dental pulp cells) was “potent activities on proliferation but not differentiation” and the “in vitro and in vivo bone formation activities” value (bone formation) was “comparable to the same activities of fibroblast growth factor (FGF)”. For the same sequence, the “proliferation and differentiation of osteoblastic cells” value (osteoblastic cells) was “potent activities on proliferation and differentiation of osteoblastic cells”, the bone fracture healing (bone fracture) was “stimulates bone fracture healing” and the “presence of connective tissue and provisional matrix in the defects” value ([2]; day 3 after the extraction) was “dose dependent increase”. The “tissue reaction in the extraction sockets” value ([2]; day 3 after the extraction) was “dose dependent increase in tissue reaction”, the “percentage of connective tissue in the defects versus saline” value ([2]; day 28) was “comparable” and the “quality of the new bone formed in the defect” value ([2]; day 28) was “dose dependently increases the quality of the new bone”. The “rate with which the defect is filled with new bone” value ([2]; day 28) was “dose dependently decreases the rate”, the “inflammatory response versus saline control” value ([2]; dog, in vivo) was “no significant difference” and the “bone growth, multiple re-applications versus single application” value ([2]; re-applied directly in the extraction sockets) was “not as effective as the single application regimen”. For the same sequence, the “bone growth (bone ingrowth)” value ([2]; single application at surgery, 1 mg and 10 mg on a collagen sponge, 28 days) was “caused stimulation of bone growth” and the “proliferation and differentiation of the cells to osteoblasts” value [3] was “dose dependently induce proliferation and differentiation”.
